The IC50 is the concentration that gives 50% inhibition.

In brackets after ≈: the same amount, converted by molar mass. Results filed as inconclusive are left out. Activity calls are given as the source filed them. How the calls were made is not given here.

Drawing on PubChem BioAssay AID1949 (Southern Research Institute, 2009), this text covers IC50 for 51 molecules.

The assay relates to M. tuberculosis H37Rv growth inhibition. Kind of assay: Mycobacterium tuberculosis H37Rv growth inhibition, cell based, confirmatory dose response (AID 1949).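 Further: bacteria grown 7 days with compound before Alamar blue readout.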
With `COc1ccc(NC(=S)Nc2cccc(C(F)(F)F)c2)c([N+](=O)[O-])c1`, the IC50 is 23.3 µg/mL (≈ 62.9 µM).

As for `C/C(=N/N=C1\NC(=O)C(Cc2ccc(Cl)cc2)S1)c1ccc(F)cc1` (stereo unspecified), the IC50 is 19 µg/mL (≈ 50.6 µM). As to `COC(=O)CSc1nnc(-c2ccc(C)cc2)o1`, the IC50 was 0.15 µg/mL (≈ 0.568 µM). Consider `CCOC(=O)CSc1cc(C)nc2ccc(C)cc12`, for which the IC50 was 1.66 µg/mL (≈ 6.03 µM).

In the case of `CC(=O)NC(=S)NNC(=O)c1ccc(-c2ccccc2)cc1`, the IC50 was less than 0.1 µg/mL. For the molecule `Cc1nc2c(o1)C1(C(=O)N2C)C(C#N)=C(N)N(c2ccccc2)c2ccccc21` (stereo unspecified), the IC50 was 6.25 µg/mL (≈ 16.3 µM). On to `CCOC(=O)Cc1c(C)nc2c(-c3cccc(Br)c3)c[nH]n2c1=O`, for which the IC50 is 1.69 µg/mL (≈ 4.33 µM).

With `O=C(Nc1ccc(Cl)c(C(F)(F)F)c1)c1ccc2c(c1)OCO2`, the IC50 is > 50 µg/mL (inactive).

For `Cc1cc2ncn(CCCOc3ccccc3C)c2cc1C`, the IC50 is 4.63 µg/mL (≈ 15.7 µM).

For `COC(=O)CSc1[nH]c2ccc(F)cc2c1[N+](=O)[O-]`, the IC50 was 23.2 µg/mL (≈ 81.7 µM). Take `CC1=NN(C(=O)c2ccccc2)C(O)(c2ccncc2)C1` (stereo unspecified): the IC50 is less than 0.1 µg/mL.

Turning to `CC(=O)Oc1c(/C=C(\C#N)C(N)=O)[nH]c2ccccc12`, the IC50 is 5.98 µg/mL (≈ 22.2 µM). `COc1ccc(Nc2nc(-c3ccccn3)cs2)c(OC)c1`: the IC50 is less than 0.1 µg/mL. As to `CCOC(=O)c1cc(-c2ccc(/C=C/[N+](=O)[O-])o2)ccc1Cl`, the IC50 is > 50 µg/mL (inactive). For the molecule `OC(CNC1CCCC1)Cn1c2ccccc2c2ccccc21` (stereo unspecified), the IC50 was 8.93 µg/mL (≈ 29 µM). Turning to `Clc1ccccc1COc1ccc2ccccc2c1CNCc1cccnc1`, the IC50 is 8.75 µg/mL (≈ 22.5 µM). `Cc1cc(NC(=O)CSc2nnc(-c3ccccc3Cl)o2)no1`: the IC50 was 2.43 µg/mL (≈ 6.93 µM). The figure for `Cc1ccc(-c2csc3ncn(C(C)C(=O)OCc4ccccc4Cl)c(=O)c23)cc1` (stereo unspecified) is 0.74 µg/mL (≈ 1.69 µM).

Consider `COc1cc2c(cc1OC)C(c1ccc(-c3ccc(Cl)c(Cl)c3)o1)=NCC2`, for which the IC50 is 6.98 µg/mL (≈ 17.4 µM). Regarding `O=C(OCc1ccc(S(=O)(=O)c2ccccc2)cc1)c1ccccc1Br`, the IC50 was 8.37 µg/mL (≈ 19.4 µM).

On to `CCC(C)NCCOc1ccc(C(C)(C)c2ccccc2)cc1` (stereo unspecified), for which the IC50 is 0.91 µg/mL (≈ 2.92 µM). With `O=C(Nc1ccc(Cl)cc1C(F)(F)F)c1ccc([N+](=O)[O-])o1`, the IC50 is 2.42 µg/mL (≈ 7.23 µM). As for `CCC(C)NCCCOc1ccc(Cl)c2ccccc12` (stereo unspecified), the IC50 was 2.06 µg/mL (≈ 7.06 µM). Take `O=C(CSc1ccc(Cl)cc1)Nc1ccc(Cl)c(C(F)(F)F)c1`: the IC50 is 3.18 µg/mL (≈ 8.36 µM). As to `CC(C(=O)Oc1cccc2cccnc12)N1C(=O)C2C3C=CC(C4CC34)C2C1=O` (stereo unspecified), the IC50 is 3.16 µg/mL (≈ 8.14 µM). On to `COc1ccc2c(c1)CC1=C2CCC2(C)C1=CCC2OC(C)=O` (stereo unspecified), for which the concentration for half-maximal inhibition (IC50) was 21.6 µg/mL (≈ 69.8 µM). As for `Cc1ccc(Cl)cc1N1CCN(C(=O)CC23CC4CC(CC(C4)C2)C3)CC1`, the IC50 is 4.43 µg/mL (≈ 11.4 µM).

With `O=C1CC(c2ccc(Cl)cc2)CC2=C1C(c1ccc(C(F)(F)F)cc1)Nc1ccccc1N2` (stereo unspecified), the IC50 is 2.14 µg/mL (≈ 4.56 µM).

With `CCOC(=O)COc1ccc(S(=O)(=O)Nc2cccc(SC)c2)cc1`, the IC50 was 3.69 µg/mL (≈ 9.67 µM). The figure for `Cc1cc(C)cc(C(=O)NC(=S)Nc2cc([N+](=O)[O-])ccc2O)c1` is 0.4 µg/mL (≈ 1.16 µM); for `O=C(OCc1ccccn1)c1ccc(COc2cccc3ccccc23)cc1` it is 6.98 µg/mL (≈ 18.9 µM). In the case of `Cc1ccc(C(C)C)c(OCCCCn2ccnc2)c1` it was 2.22 µg/mL (≈ 8.15 µM); in that of `Cc1ccn2c(-c3csc(Nc4ccccn4)n3)c(C)nc2c1`, 0.24 µg/mL (≈ 0.747 µM); in that of `O=C(/C=C/c1cccc(C(F)(F)F)c1)Nc1cccc(Br)c1`, 1.39 µg/mL (≈ 3.76 µM).

Turning to `O=C(CC12CC3CC(CC(C3)C1)C2)NC(=S)Nc1ccc(-c2nc3ccccc3[nH]2)cc1`, the IC50 was 1.46 µg/mL (≈ 3.28 µM). Turning to `Cc1cc(NC(=O)c2ccc([N+](=O)[O-])o2)c(C)cc1I`, the IC50 is 0.46 µg/mL (≈ 1.19 µM). Take `CCn1c(/C=C/c2ccc(F)cc2)nc2ccccc21`: the IC50 was 8.17 µg/mL (≈ 30.7 µM).

Regarding `CCCNC(=S)NC(=O)c1ccc(C(C)(C)C)cc1`, the IC50 was 17 µg/mL (≈ 61 µM). Consider `CC(C)(C)NC(=O)c1cc2cc([N+](=O)[O-])ccc2oc1=O`, for which the IC50 is 1.48 µg/mL (≈ 5.1 µM). On to `CN1CCN(c2ccc(NC(=S)NC(=O)c3ccc(-c4cccc(Cl)c4)o3)cc2)CC1`, for which the IC50 is 0.38 µg/mL (≈ 0.835 µM).

With `Clc1ccc(COc2ccc3ccccc3c2CNCc2cccnc2)c(Cl)c1`, the IC50 is 2.7 µg/mL (≈ 6.38 µM). Turning to `CCc1ccc(OCC(=O)Nc2cccc(F)c2)cc1`, the IC50 was 1.74 µg/mL (≈ 6.37 µM). Take `Cc1ccc(NC(=O)C2C3CC/C=C\CC/C=C/CCC32)cc1C` (stereo unspecified): the IC50 is 23.6 µg/mL (≈ 72.8 µM).

Turning to `COc1ccc2c(c1)CCC1Sc3ccccc3N=C21` (stereo unspecified), the IC50 was 1.43 µg/mL (≈ 5.08 µM).

For the molecule `Cc1nc(Nc2nc3c(c(=O)[nH]2)CCCC3)nc2c(C)cccc12`, the IC50 is 28.1 µg/mL (≈ 87.4 µM).

As for `CSc1ncc(C(=O)Nc2cccc(C(F)(F)F)c2)cn1`, the IC50 was less than 0.1 µg/mL. Regarding `O=C(CN(c1ccc(Cl)c(Cl)c1)S(=O)(=O)c1ccccc1)Nc1cccc([N+](=O)[O-])c1`, the IC50 is 1.47 µg/mL (≈ 3.06 µM). Turning to `CCN(CC)c1cccc(Oc2nc([N+](=O)[O-])nn2C)c1`, the IC50 was 1.81 µg/mL (≈ 6.21 µM). Regarding `O=C(COc1cccc2ccccc12)c1ccc(F)cc1`, the IC50 was 2.82 µg/mL (≈ 10.1 µM). As to `O=C(c1ccc(NC(=O)C2(c3ccccc3)CCCC2)cc1)N1CCCCC1`, the IC50 is 1.24 µg/mL (≈ 3.29 µM). Turning to `O=[N+]([O-])c1ccc(O)c(-c2nc3ccccc3s2)c1`, the IC50 is > 50 µg/mL (inactive).
